The text below walks through data of ChEMBL document CHEMBL4765274, “The development of advanced structural framework as multi-target-directed ligands for the treatment of Alzheimer's disease” (Eur J Med Chem, 2020).

Data set [1] can be described thus: Antioxidant activity assessed as trolox equivalent of AAPH radical scavenging activity measured every min for 4 hrs by ORAC-FL assay relative to trolox. Format: functional.
The test system of data set [2] is SH-SY5Y. The data set can be described thus: Neuroprotective activity against amyloid beta (1 to 42 residues)-induced cytotoxicity in human SH-SY5Y cells assessed as increase in cell viability at 1 to 10 uM incubated for 48 hrs by MTT assay. Type of data set: functional, cell-based. The settings on record: dose 1-10 µM. (In general: Tetrazolium dyes change colour on reduction, which living cells bring about.)

The nature of data set [3]: Selectivity index, ratio of IC50 for inhibition of equine serum BChE to IC50 for inhibition of electric eel AChE.
In data set [4] the test system is SH-SY5Y. Put plainly: Cytotoxicity against human SH-SY5Y cells assessed as cell viability up to 100 uM after 48 hrs by MTT assay relative to control. Format: cell-based.
Data set [5] in a line: Inhibition of self-induced amyloid beta (1 to 42 residues) (unknown origin) aggregation by thioflavin T based fluorescence assay. The arrangement: species or system Homo sapiens.
The target in data set [6] is Acetylcholinesterase (Homo sapiens, UniProt P22303). The data set can be described thus: Inhibition of AChE in human erythrocytes by Ellman's method. Type of data set: cell-based, Erythrocyte.
Data set [7] in a line: Cytotoxicity against rat PC-12 cells assessed as cell viability at 100 uM after 48 hrs by MTT assay relative to control. Format: cell-based. The settings on record: read-out: Activity.
The target of data set [8] is Cholinesterase (Homo sapiens, UniProt P06276). Put plainly: Inhibition of human serum BChE by Ellman's method. Type of data set: cell-free.
A further data set relates to PC-12. The data set can be described thus: Neuroprotective activity against H2O2-induced cytotoxicity in rat PC-12 cells assessed as decrease in LDH activity at 1 to 10 uM preincubated for 2 hrs followed by H2O2 addition and measured after 24 hrs by LDH assay. The settings on record: dose 1-10 µM, time 26.0 hrs. Format: functional, cell-based.
The target of data set [9] is Acetylcholinesterase (Electrophorus electricus, UniProt O42275). The data set can be described thus: Inhibition of electric eel AChE by Ellman's method.
The target of data set [10] is Cholinesterase (Equus caballus, UniProt P81908). Put plainly: Inhibition of equine serum BChE by Ellman's method. Format: cell-free. A general note: In Ellman's method for cholinesterases, released thiocholine reacts with DTNB.
For the next data set, the species on record is Danio rerio. Put plainly: Antialzheimer activity in Alcl3-induced zebra fish AD model assessed as increase in motility at 8 uM relative to control. Type of data set: functional.
Data set [11] in a line: Inhibition of Cu2+-induced amyloid beta (1 to 42 residues) (unknown origin) aggregation at 25 uM after 24 hrs by thioflavin-T fluorescence method relative to control.
The subject of the next data set is Mus musculus. Put plainly: Antialzheimer activity in scopolamine-induced Kunming mouse model of memory impairment assessed as latency time at 5 mg/kg , po by step-down passive avoidance test (reference value: 125.65 sec). Type of data set: functional.

Calls of active or inactive are those of the source. The calls are words filed in the database; no cut-off is given here.

Acetylcholinesterase (Electrophorus electricus, UniProt O42275), sequence (O42275 whole entry): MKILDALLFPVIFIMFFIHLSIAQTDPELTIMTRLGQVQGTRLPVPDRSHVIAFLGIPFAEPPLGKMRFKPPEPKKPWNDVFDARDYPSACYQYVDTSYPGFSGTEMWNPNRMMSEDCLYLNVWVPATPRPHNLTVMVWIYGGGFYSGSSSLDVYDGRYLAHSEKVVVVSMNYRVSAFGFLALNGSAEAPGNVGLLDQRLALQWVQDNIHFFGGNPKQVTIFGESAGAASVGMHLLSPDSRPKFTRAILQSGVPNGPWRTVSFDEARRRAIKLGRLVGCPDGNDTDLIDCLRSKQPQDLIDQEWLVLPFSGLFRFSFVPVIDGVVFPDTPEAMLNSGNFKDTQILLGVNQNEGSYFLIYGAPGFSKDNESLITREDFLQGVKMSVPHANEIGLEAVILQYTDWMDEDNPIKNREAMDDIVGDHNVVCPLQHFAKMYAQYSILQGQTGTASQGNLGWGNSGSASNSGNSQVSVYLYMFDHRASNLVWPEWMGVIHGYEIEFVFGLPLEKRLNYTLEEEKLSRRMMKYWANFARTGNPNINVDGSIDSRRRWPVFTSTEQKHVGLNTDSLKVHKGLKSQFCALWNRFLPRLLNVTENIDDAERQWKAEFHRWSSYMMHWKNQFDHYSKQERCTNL
Cholinesterase (Homo sapiens, UniProt P06276), sequence (P06276 whole entry): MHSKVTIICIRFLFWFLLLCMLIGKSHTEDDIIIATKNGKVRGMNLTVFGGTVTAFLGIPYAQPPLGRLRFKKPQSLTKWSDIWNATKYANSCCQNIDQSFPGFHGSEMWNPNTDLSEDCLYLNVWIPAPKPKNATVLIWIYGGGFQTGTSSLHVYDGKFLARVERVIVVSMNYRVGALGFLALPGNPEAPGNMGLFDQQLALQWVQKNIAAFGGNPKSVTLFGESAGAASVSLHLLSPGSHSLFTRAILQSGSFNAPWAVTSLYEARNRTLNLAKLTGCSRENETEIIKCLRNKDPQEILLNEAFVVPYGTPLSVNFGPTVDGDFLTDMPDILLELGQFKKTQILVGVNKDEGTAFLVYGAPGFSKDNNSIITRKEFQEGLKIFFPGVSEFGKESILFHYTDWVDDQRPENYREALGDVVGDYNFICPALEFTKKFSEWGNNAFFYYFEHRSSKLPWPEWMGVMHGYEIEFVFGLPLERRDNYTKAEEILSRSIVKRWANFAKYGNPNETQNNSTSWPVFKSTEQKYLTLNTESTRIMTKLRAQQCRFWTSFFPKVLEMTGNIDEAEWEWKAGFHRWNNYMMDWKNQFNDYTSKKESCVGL
Acetylcholinesterase (Homo sapiens, UniProt P22303), sequence (P22303 whole entry): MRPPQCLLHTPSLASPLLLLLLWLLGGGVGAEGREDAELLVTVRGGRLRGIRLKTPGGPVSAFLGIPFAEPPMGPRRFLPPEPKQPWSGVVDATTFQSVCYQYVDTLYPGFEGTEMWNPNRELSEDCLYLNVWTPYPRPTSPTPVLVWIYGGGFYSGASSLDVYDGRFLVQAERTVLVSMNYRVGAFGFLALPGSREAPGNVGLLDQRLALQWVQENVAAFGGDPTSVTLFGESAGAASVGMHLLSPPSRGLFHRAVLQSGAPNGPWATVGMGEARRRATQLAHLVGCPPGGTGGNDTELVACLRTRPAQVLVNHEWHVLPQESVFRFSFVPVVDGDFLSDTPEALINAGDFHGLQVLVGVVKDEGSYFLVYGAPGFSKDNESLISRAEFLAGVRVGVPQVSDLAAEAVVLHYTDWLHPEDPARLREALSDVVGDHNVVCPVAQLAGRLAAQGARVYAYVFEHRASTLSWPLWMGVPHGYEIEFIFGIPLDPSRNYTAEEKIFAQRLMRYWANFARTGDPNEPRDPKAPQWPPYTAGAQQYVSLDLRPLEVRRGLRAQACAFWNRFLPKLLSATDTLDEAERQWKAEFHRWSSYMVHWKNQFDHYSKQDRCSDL
Cholinesterase (Equus caballus, UniProt P81908), sequence (P81908 whole entry): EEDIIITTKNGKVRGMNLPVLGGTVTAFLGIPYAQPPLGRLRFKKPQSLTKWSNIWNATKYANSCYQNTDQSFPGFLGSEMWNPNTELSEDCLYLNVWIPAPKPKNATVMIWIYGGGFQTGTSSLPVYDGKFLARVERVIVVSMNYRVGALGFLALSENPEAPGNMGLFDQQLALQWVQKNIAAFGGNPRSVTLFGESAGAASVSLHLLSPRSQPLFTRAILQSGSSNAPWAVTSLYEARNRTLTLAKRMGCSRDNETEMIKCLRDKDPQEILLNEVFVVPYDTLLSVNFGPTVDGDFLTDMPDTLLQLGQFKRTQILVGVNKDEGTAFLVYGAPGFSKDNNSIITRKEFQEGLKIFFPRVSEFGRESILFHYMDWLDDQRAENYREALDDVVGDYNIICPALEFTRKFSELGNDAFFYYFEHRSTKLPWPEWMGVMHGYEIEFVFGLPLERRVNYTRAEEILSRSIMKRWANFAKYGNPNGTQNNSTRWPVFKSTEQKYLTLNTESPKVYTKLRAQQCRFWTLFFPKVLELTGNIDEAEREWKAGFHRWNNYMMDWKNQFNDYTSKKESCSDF

As to `CCN(CCCCOc1ccc(/C=C/C(=O)c2c(O)cc(OCCCCN(CC)Cc3ccccc3OC)cc2O)cc1)Cc1ccccc1OC`, in [1], the fold change (FC) stood at 1.3. Moreover, the outcome in the data set with SH-SY5Y [2] and in the data set on PC-12 was Active. For the same molecule, in data set [3], the Ratio IC50 came to 13.4. The Activity result in the data set on SH-SY5Y [4] is “Toxic”. Also, the half-inhibitory concentration (IC50) in data set [5] (read-out: IC50) came out at 3.7 µM; against Acetylcholinesterase [6], 1300 nM; against Cholinesterase [8], 5.2 µM; against Acetylcholinesterase [9], 1160 nM; against Cholinesterase [10], 15.6 µM. Moreover, the viability at 48 h, 100 µM in data set [7] turned out to be 55.6%.
With `COc1cc2c(cc1OC)C(=O)C(CC1CCN(Cc3ccccc3)CC1)C2` (stereo not given) [DONEPEZIL], the Activity in the data set filed under Danio rerio stood at 55%. In data set [5], the IC50 entry was “Not Active”. Also, the inhibition result in [11] was “inactive”. The Time in the data set with Mus musculus came to 251.42 s.

The IC50 is the midpoint of a concentration-inhibition curve.
